Experiments:
[1] = system: Transformed human keratinocyte (HaCaT) cells stimulated with TNFα and IFNγ; test: JAK inhibitors in TNFα/IFNγ stimulated keratinocytes, inflammatory mediators in media (ProCarta Multiplex Immunoassay); details: mean ± 1 standard error
[2] = system: Transformed human keratinocyte (HaCaT) cells stimulated with TNFα and IFNγ; test: JAK inhibitors in TNFα/IFNγ stimulated keratinocytes, gene expression (QuantiGene Plex); details: 24 hours, normalized to HPRT1, mean ± standard error
[3] = target: human JAK1 (a.a. 837-1142) (Homo sapiens, UniProt P23458); test: In vitro JAK kinase assay (HTRF), JAK1; format: biochemical; details: 1 mM ATP
[4] = system: human JAK1 (a.a. 837-1142); test: In vitro JAK kinase assay (HTRF), JAK1; format: biochemical; details: IC50 ratio at 1 mM ATP
[5] = TNFα (25 ng/mL) and IFNγ (25 ng/mL) stimulation, drug 25 nM
[6] = TNFα (25 ng/mL) and IFNγ (25 ng/mL) stimulation, drug 50 nM
[7] = TNFα (25 ng/mL) and IFNγ (25 ng/mL) stimulation, drug 100 nM
[8] = TNFα (25 ng/mL) and IFNγ (25 ng/mL) stimulation, drug 200 nM
[9] = TNFα (25 ng/mL) and IFNγ (25 ng/mL), drug 25 nM
[10] = TNFα (25 ng/mL) and IFNγ (25 ng/mL), drug 50 nM
[11] = TNFα (25 ng/mL) and IFNγ (25 ng/mL), drug 100 nM
[12] = TNFα (25 ng/mL) and IFNγ (25 ng/mL), drug 200 nM

C[C@@H](O)c1nc2cnc3ccsc3c2n1[C@H]1CC[C@H](CC#N)OC1 [Compound 5, ((2R,5S)-5-{2-[(1R)-1-hydroxyethyl]-1H-imidazo[4,5-d]thieno[3,2-b]pyridin-1-yl}tetrahydro-2H-pyran-2-yl)acetonitrile]
IL-1α concentration in media [1, 5]: 6.8 ± 0.39 pg/mL
IL-6 concentration in media [1, 5]: 743.07 ± 36.3 pg/mL
IP-10/CXCL10 concentration in media [1, 5]: 3903.67 ± 366.97 pg/mL
MIP1α concentration in media [1, 5]: 102.06 ± 4.18 pg/mL
RANTES concentration in media [1, 5]: 237.57 ± 17.46 pg/mL
IL-1α concentration in media [1, 6]: 6.76 ± 0.4 pg/mL
IL-6 concentration in media [1, 6]: 698.04 ± 29.79 pg/mL
IP-10/CXCL10 concentration in media [1, 6]: 3998.62 ± 456.34 pg/mL
MIP1α concentration in media [1, 6]: 96.35 ± 3.57 pg/mL
RANTES concentration in media [1, 6]: 237.55 ± 21.78 pg/mL
IL-1α concentration in media [1, 7]: 6.92 ± 0.4 pg/mL
IL-6 concentration in media [1, 7]: 703.99 ± 42.22 pg/mL
IP-10/CXCL10 concentration in media [1, 7]: 4100.26 ± 502.48 pg/mL
MIP1α concentration in media [1, 7]: 96.22 ± 3.58 pg/mL
RANTES concentration in media [1, 7]: 241.39 ± 22.79 pg/mL
IL-1α concentration in media [1, 8]: 6.3 ± 0.35 pg/mL
IL-6 concentration in media [1, 8]: 646.2 ± 32.46 pg/mL
IP-10/CXCL10 concentration in media [1, 8]: 4407.56 ± 645.63 pg/mL
MIP1α concentration in media [1, 8]: 88.49 ± 5.06 pg/mL
RANTES concentration in media [1, 8]: 238.51 ± 23.12 pg/mL
IL-1α concentration in media ([1]; no stimulation, drug 200 nM): 0.31 ± 0.04 pg/mL
IL-6 concentration in media ([1]; no stimulation, drug 200 nM): 28.84 ± 1.89 pg/mL
IP-10/CXCL10 concentration in media ([1]; no stimulation, drug 200 nM): 20.39 ± 0.57 pg/mL
MIP1α concentration in media ([1]; no stimulation, drug 200 nM): 3.11 ± 0.28 pg/mL
RANTES concentration in media ([1]; no stimulation, drug 200 nM): 9.51 ± 0.56 pg/mL
IL-1α MFI [2, 9]: 1269.66 ± 50.59
IL-6 MFI [2, 9]: 132.28 ± 7.41
JAK1 MFI [2, 9]: 200.4 ± 9.84
JAK2 MFI [2, 9]: 108.89 ± 3.25
JAK3 MFI [2, 9]: 0.97 ± 0.18
STAT1 MFI [2, 9]: 3164.74 ± 242.35
STAT3 MFI [2, 9]: 1572.76 ± 65.5
STAT4 MFI [2, 9]: 5.4 ± 0.45
STAT5A MFI [2, 9]: 20.12 ± 1.29
STAT6 MFI [2, 9]: 1042.76 ± 29.23
TYK2 MFI [2, 9]: 283.93 ± 8.16
IL-1α MFI [2, 10]: 1336.95 ± 50.97
IL-6 MFI [2, 10]: 137.61 ± 5.87
JAK1 MFI [2, 10]: 210.52 ± 7.73
JAK2 MFI [2, 10]: 106.83 ± 5.94
JAK3 MFI [2, 10]: 0.99 ± 0.20
STAT1 MFI [2, 10]: 3017.08 ± 167.96
STAT3 MFI [2, 10]: 1543.4 ± 58.65
STAT4 MFI [2, 10]: 6.1 ± 0.36
STAT5A MFI [2, 10]: 22.69 ± 1.71
STAT6 MFI [2, 10]: 1046.46 ± 29.12
TYK2 MFI [2, 10]: 307.36 ± 14.87
IL-1α MFI [2, 11]: 1244.96 ± 41.03
IL-6 MFI [2, 11]: 122.46 ± 5.35
JAK1 MFI [2, 11]: 200.25 ± 8.15
JAK2 MFI [2, 11]: 102.64 ± 3.52
JAK3 MFI [2, 11]: 1.01 ± 0.17
STAT1 MFI [2, 11]: 2999.87 ± 197.86
STAT3 MFI [2, 11]: 1549.17 ± 89.41
STAT4 MFI [2, 11]: 5.83 ± 0.34
STAT5A MFI [2, 11]: 19.54 ± 1.34
STAT6 MFI [2, 11]: 985.1 ± 39.79
TYK2 MFI [2, 11]: 280.63 ± 10.46
IL-1α MFI [2, 12]: 1163.14 ± 26.71
IL-6 MFI [2, 12]: 119.49 ± 4.42
JAK1 MFI [2, 12]: 190.53 ± 7.68
JAK2 MFI [2, 12]: 92.21 ± 2.9
JAK3 MFI [2, 12]: 0.86 ± 0.16
STAT1 MFI [2, 12]: 3161.66 ± 135.8
STAT3 MFI [2, 12]: 1570.19 ± 51.51
STAT4 MFI [2, 12]: 5.42 ± 0.52
STAT5A MFI [2, 12]: 18.33 ± 1.83
STAT6 MFI [2, 12]: 1013.25 ± 17.15
TYK2 MFI [2, 12]: 283.28 ± 10.88
IL-1α MFI ([2]; no stimulation, drug 200 nM): 92.67 ± 5.54
IL-6 MFI ([2]; no stimulation, drug 200 nM): 5.15 ± 0.31
JAK1 MFI ([2]; no stimulation, drug 200 nM): 177.97 ± 14.91
JAK2 MFI ([2]; no stimulation, drug 200 nM): 25.67 ± 1.03
JAK3 MFI ([2]; no stimulation, drug 200 nM): 0.71 ± 0.15
STAT1 MFI ([2]; no stimulation, drug 200 nM): 554.64 ± 11.36
STAT3 MFI ([2]; no stimulation, drug 200 nM): 750.90 ± 27.68
STAT4 MFI ([2]; no stimulation, drug 200 nM): 4.32 ± 0.53
STAT5A MFI ([2]; no stimulation, drug 200 nM): 1.99 ± 0.51
STAT6 MFI ([2]; no stimulation, drug 200 nM): 777.03 ± 29.31
TYK2 MFI ([2]; no stimulation, drug 200 nM): 220.78 ± 12.01
IC50 [3]: < 100 nM
JAK2/JAK1 [4]: >10

Reference: patent US11304949B2, “Treatment of hidradenitis suppurativa using JAK inhibitors” (Incyte Corporation, priority 2018, dated 2022)
